The record followed here is ChEMBL document CHEMBL1158151, “Cactus Alkaloids. XXXIX. A Glucotetrahydroiosquinoline From the Mexican Cactus, Pterocereus gaumeri” (1979).

Converted amounts (≈) assume the structure as drawn. Some results are limits rather than exact numbers.

The test is described as follows: Cytotoxicity against human 9KB cells. It counts as functional. The following applies: read-out: ED50 (the source's name).

For the compound `COc1cc2c(c(O[C@@H]3O[C@H](CO)[C@@H](O)[C@H](O)[C@H]3O)c1OC)CCN(C)C2CO` (some centres not stated) [PTEROCEREINE], the EC50 was over 100 µg/mL.
As for `COc1cc2c(c(O)c1OC)CCN(C)C2CO` (configuration not stated) [DEGLUCOPTEROCEREINE], the figure is 16 µg/mL (≈ 63.2 µM).
